We go through two molecules from ChEMBL document CHEMBL5390223, “Strategies for the Discovery of Oxazolidinone Antibacterial Agents: Development and Future Perspectives” (J Med Chem, 2023).

The structures appear in SMILES notation. Values after ≈ are worked out from the molar mass of the structure shown.

Assay [1] relates to Mycobacterium tuberculosis variant bovis. The experiment in a line: Antimycobacterial activity against Mycobacterium tuberculosis H37Rv assessed as reduction in bacterial growth by MABA assay. The class given is functional. On the technique in general: The colour change of resazurin is a common sign of viable cells or microbes.
Assay [2] shares this test system. The experiment in a line: Antimycobacterial activity against Mycobacterium tuberculosis H37Rv assessed as reduction in bacterial cell growth. In kind it is functional.

For orientation: MIC means the lowest concentration found to suppress growth.

As for `CC(=O)NC[C@H]1CN(c2ccc(N3CCOCC3)c(F)c2)C(=O)O1` [LINEZOLID], in assay [1], the minimum inhibitory concentration (MIC) stood at 0.5 µg/mL (≈ 1.48 µM). Consider `CC(=O)NC[C@H]1CN(c2ccc(N3CCSCC3)c(F)c2)C(=O)O1` [SUTEZOLID], for which the MIC in assay [2] is 0.125 µg/mL (≈ 0.354 µM).
